Test results: article PMC11345829, “Discovery of Potent Isoquinolinequinone N-Oxides to Overcome Cancer Multidrug Resistance” (Journal of Medicinal Chemistry, 2024)

What was measured:
MRC-5 = assay: SRB cytotoxicity assay, nontumorigenic lung fibroblasts; type: cell-based, human; conditions: 48 h
Method: Selectivity over nontumorigenic cells is a key requirement in cancer therapy so the cytotoxicity of 25 against nontumorigenic lung fibroblast (MRC-5) and breast cell lines (MCF12A) was evaluated with the SRB assay.
Figure 5 Cytotoxic effect of compound 25 on the nontumorigenic MRC-5 cell line (fibroblasts isolated from the lung tissue), analyzed by the SRB assay. Concentration−response curves of MRC-5 cells exposed to compound 25 for 48 h. Results are presented as percentage (%) of cell growth compared to control cells (vehicle, DMSO). For comparison purposes, the GI50 concentration of compound 25 in the NCI-H460 cell line is represented by the vertical dotted line. Results are the mean ± SEM from at least three independent experiments.
Cells were seeded at a previously determined optimal cell concentration (5.0 × 10^4 cells/mL for NSCLC cells and the nontumorigenic MRC-5 cell line and 1.0 × 10^5 cells/mL for colorectal cancer cells) and incubated at 37 °C for 24 h. […] The SRB assay was performed as previously described.[78],[79] […] Absorbance was measured at 510 nm in a multiplate reader (Synergy Mx, Biotek Instruments Inc., Winooski, Vermont, USA) using the Gen5 software (Biotek Instruments Inc.).

DLD1 spheroids = assay: Cell Titer-Glo 3D spheroid viability assay; type: cell-based, human; conditions: 48 h; 25 at 0.61 and 1.22 μM
Source text: (§1) Figure 12 Effect of compound 25 on the viability of spheroids established from two counterpart pairs of sensitive and MDR cell lines, from NSCLC (NCI-H460 and NCI-H460/R) and colorectal cancer (DLD1 and DLD1-TxR), using MicroTissue 3D Petri dishes. […] (B) Effect of compound 25 on the viability of NCI-H460 spheroids analyzed by Cell Titer-Glo 3D viability assay. (C) Effect of compound 25 on the viability of NCI-H460/R spheroids analyzed with the Cell Titer-Glo 3D viability assay. Results are presented as the % of luciferase luminescence relative to the “blank” cells (medium). […] (E) Effect of compound 25 on the viability of DLD1 spheroids analyzed by Cell Titer-Glo 3D viability assay. (F) Effect of compound 25 on the viability of DLD1-TxR spheroids analyzed with the Cell Titer-Glo 3D viability assay. Data are expressed as mean ± SEM from 3 independent experiments. * p ≤ 0.05 and ** p ≤ 0.01, when comparing DMSO vs compound treatment.
(§2) Spheroid formation was conducted in 12-series agarose 3D Petri Dish micromolds (MicroTissues Technology, MicroTissues Inc., Sigma-Aldrich). The agarose micromolds were prepared using 1% agarose in a 0.9% NaCl solution and then placed in 12-well plates and equilibrated with RPMI supplemented with 10% FBS for at least 2 h before cell seeding. Cell suspensions corresponding to 500 cells per spheroid of the NSCLC cell lines (NCI-H460 and NCI-H460/R), and 1000 cells per spheroid of the colorectal cancer cell lines (DLD1 and DLD1-TxR) were seeded in the corresponding micromolds. The choice of cell seeding concentration was based on a previous optimization assay (data not shown), ensuring that at the end of the assay the spheroids would have a size of around 400 μm. A 20 min incubation period was used for cells to settle into the micromolds and additional medium was finally added to the wells. Spheroid formation was monitored with the Leica DMi1 microscope. […] At the end of the treatment, images from at least 8 different spheroids per condition were captured on the Leica Dmi1 microscope, and posteriorly analyzed with the automated open-source software AnaSP.[82] Spheroid parameters, such as equivalent diameter, circularity, and compactness, were calculated.
(§3) Spheroid viability was determined through the luminescence-based Cell Titer-Glo 3D cell viability assay (Promega). Spheroids grown on MicroTissues 3D Petri Dish micromolds were exposed to the treatments, as described in the previous section. Then, the spheroids were transferred into 96-well plates in 50 μL of RPMI medium. […] The plate was then incubated in the dark for 5 min with agitation and allowed to rest for 25 min before luminescence measurement. Luminescence was quantified using the microplate reader Synergy MX coupled with the GEN5 software. […]

DLD1-TxR spheroids = assay: Cell Titer-Glo 3D spheroid viability assay; type: cell-based, human; conditions: 48 h; 25 at 0.61 and 1.22 μM
Source text: as §1, §2, §3

NCI-ADR/RES = tested on: NCI-ADR/RES; design: method as in PMID 31894828; conditions: MDR cell line, high P-gp; read-out: growth inhibition (GI50) NCI/ADR-RES; cited from earlier work
NCI-H460 spheroid = tested on: NCI-H460 spheroid; design: method as in PMID 34915071; conditions: 3D; cited from earlier work
NCI-H460 cells = tested on: NCI-H460 cells; design: method as in PMID 34915071; conditions: cited from earlier work

COC(=O)c1c2c(c[n+]([O-])c1C)C(=O)C=C(NCc1ccccc1)C2=O [Compound 25]
GI50 (MRC-5; Homo sapiens, MRC5, SRB, nontumorigenic lung fibroblasts, ±0.075 SEM): 1.53 µM | effect on MRC-5 growth at low concentrations (MRC-5; below 0.5 μM): does not reduce the growth of this cell line | viability of DLD1 spheroids (DLD1 spheroids): significant decrease in the viability of the spheroids | viability of DLD1-TxR spheroids (DLD1-TxR spheroids): significant decrease in the viability of the spheroids

COC(=O)c1c2c(c(C)[n+]([O-])c1C)C(=O)C=C(NCc1ccccc1)C2=O [Compound 2]
GI50 (NCI-ADR/RES): 0.535 µM

COc1cccc2c1C(=O)c1c(O)c3c(c(O)c1C2=O)C[C@@](O)(C(=O)CO)C[C@@H]3O[C@H]1C[C@H](N)[C@H](O)[C@H](C)O1 [doxorubicin, reference compound]
concentration reducing NCI-H460 spheroid viability (NCI-H460 spheroid): 20 µM | concentration reducing viability of NCI-H460 cells in 2D models (NCI-H460 cells): 0.1 µM
